Measured values reported in paper doi:10.1101/2020.07.09.196246v1 (biorxiv, 2020).

Assays:
[1] = target: T1, zebrafish α9α10 (1:2) nAChR (Danio rerio, UniProt A0A8M9PIT7+Q1LY90); assay: two-electrode voltage clamp, peak inward current, Hill fit; format: cell-based
T1 sequence (A0A8M9PIT7 20-580): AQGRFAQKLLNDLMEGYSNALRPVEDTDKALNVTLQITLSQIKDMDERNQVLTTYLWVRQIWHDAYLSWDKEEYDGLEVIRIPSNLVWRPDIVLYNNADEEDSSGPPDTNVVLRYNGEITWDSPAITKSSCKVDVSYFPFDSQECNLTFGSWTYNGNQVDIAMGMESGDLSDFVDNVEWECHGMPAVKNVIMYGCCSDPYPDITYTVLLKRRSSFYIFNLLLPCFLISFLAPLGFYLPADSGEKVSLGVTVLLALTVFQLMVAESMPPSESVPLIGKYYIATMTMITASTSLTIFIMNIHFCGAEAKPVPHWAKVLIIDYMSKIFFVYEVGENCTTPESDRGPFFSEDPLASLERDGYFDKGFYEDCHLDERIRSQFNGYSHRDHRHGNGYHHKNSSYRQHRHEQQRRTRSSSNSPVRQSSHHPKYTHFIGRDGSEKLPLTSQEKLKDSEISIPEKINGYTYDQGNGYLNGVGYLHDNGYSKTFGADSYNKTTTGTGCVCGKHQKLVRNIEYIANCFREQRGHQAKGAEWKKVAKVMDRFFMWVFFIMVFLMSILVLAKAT
T1 sequence (Q1LY90 26-527): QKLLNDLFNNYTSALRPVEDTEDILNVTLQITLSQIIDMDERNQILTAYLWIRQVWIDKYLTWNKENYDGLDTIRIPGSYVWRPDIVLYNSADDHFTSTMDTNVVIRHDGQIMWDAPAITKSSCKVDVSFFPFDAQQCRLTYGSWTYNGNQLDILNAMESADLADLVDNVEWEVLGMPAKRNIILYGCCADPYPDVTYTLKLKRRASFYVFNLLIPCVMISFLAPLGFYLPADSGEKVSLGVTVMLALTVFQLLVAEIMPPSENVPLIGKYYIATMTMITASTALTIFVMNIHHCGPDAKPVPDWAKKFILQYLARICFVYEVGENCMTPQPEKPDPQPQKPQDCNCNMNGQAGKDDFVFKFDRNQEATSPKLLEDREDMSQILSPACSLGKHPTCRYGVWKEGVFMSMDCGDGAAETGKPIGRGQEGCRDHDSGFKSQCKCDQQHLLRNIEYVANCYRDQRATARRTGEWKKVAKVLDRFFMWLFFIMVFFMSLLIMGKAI

[2] = target: T2, zebrafish α9 nAChR (homomeric) (Danio rerio, UniProt A0A8M9PIT7); assay: as above; format: cell-based
T2 sequence (A0A8M9PIT7 20-580): T1 sequence (A0A8M9PIT7 20-580)

With `CC(=O)OCC[N+](C)(C)C` [ACh, acetylcholine] the EC50 [1] was 437 µM and the EC50 [2] was 11.7 µM.
